ChEMBL document CHEMBL6096697, “Structure-Guided Discovery of Novel N4-(Substituted Thiazol-2-yl)-N2-(4-Substituted phenyl)pyrimidine-2,4-Diamines as Potent CDK2 and CDK9 Dual Inhibitors with High Oral Bioavailability” (J Med Chem, 2025)

How the values were obtained:
[1] = molecular target: Cyclin-dependent kinase 2/cyclin A (Homo sapiens) (UniProt P24941+P20248+P78396); assay: Inhibition of CDK2/cyclin A (unknown origin) using […] at 1 uM incubated for 40 mins in presence of ATP by Kinase-Glo assay relative to control; format: protein-complex assay
HCT-116 = assay: Cytotoxicity against human HCT-116 cells assessed as cell growth inhibition incubated for 48 hrs by MTT assay; format: functional, cell-based; conditions: HCT-116, 48 h
[2] = molecular target: CDK9/cyclin T1 (Homo sapiens) (UniProt O60563+P50750); assay: Inhibition of CDK9/cyclin T (unknown origin) using […] at 1 uM incubated for 40 mins in presence of ATP by Kinase-Glo assay relative to control; format: protein-complex assay
[3] = molecular target: Cyclin-dependent kinase 2/cyclin A (Homo sapiens, UniProt P24941); assay: Inhibition of CDK2/cyclin A (unknown origin) using […] incubated for 40 mins in presence of ATP by Kinase-Glo assay; format: protein-complex assay
[4] = Inhibition of CDK9/cyclin T (unknown origin) using […] incubated for 40 mins in presence of ATP by Kinase-Glo assay; parameters: species or system Homo sapiens
U-87 MG = assay: Antiproliferative activity against human U-87 MG cells assessed as cell growth inhibition incubated for 48 hrs by MTT assay; format: functional, cell-based, U-87MG ATCC
[5] = Antiproliferative activity against HEK293 cells assessed as cell growth inhibition incubated for 48 hrs by MTT assay; format: toxicity, cell-based; conditions: human
HepG2 = assay: Antiproliferative activity against human HepG2 cells assessed as cell growth inhibition incubated for 48 hrs by MTT assay; format: functional, cell-based; conditions: HepG2, 48 h
HeLa = assay: Antiproliferative activity against human HeLa cells assessed as cell growth inhibition incubated for 48 hrs by MTT assay; format: functional, cell-based
MCF7 = assay: Antiproliferative activity against human MCF7 cells assessed as cell growth inhibition incubated for 48 hrs by MTT assay; format: functional, cell-based; conditions: MCF7, 48 h
[6] = Inhibition of CDK1/cyclin B (unknown origin) using […] incubated for 40 mins in presence of ATP by Kinase-Glo assay; parameters: species or system Homo sapiens
MV4-11 = assay: Antiproliferative activity against human MV4-11 cells assessed as cell growth inhibition incubated for 48 hrs by MTT assay; format: functional, cell-based; conditions: MV4-11, 48 h
A2780 = assay: Antiproliferative activity against human A2780 cells assessed as cell growth inhibition incubated for 48 hrs by MTT assay; format: functional, cell-based; conditions: A2780, 48 h
A549 = assay: Antiproliferative activity against human A549 cells assessed as cell growth inhibition incubated for 48 hrs by MTT assay; format: functional, cell-based; conditions: A549, 48 h
MDA-MB-231 = assay: Antiproliferative activity against human MDA-MB-231 cells assessed as cell growth inhibition incubated for 48 hrs by MTT assay; format: functional, cell-based; conditions: MDA-MB-231, 48 h
HT-29 = assay: Antiproliferative activity against human HT-29 cells assessed as cell growth inhibition incubated for 48 hrs by MTT assay; format: functional, cell-based; conditions: HT-29, 48 h
[7] = molecular target: Glycogen synthase kinase-3 alpha (Homo sapiens) (UniProt P49840); assay: Inhibition of GSK3-alpha (unknown origin) at 1 uM relative to control
Chain of Glycogen synthase kinase-3 alpha (Homo sapiens) (P49840 2-483 limits assumed): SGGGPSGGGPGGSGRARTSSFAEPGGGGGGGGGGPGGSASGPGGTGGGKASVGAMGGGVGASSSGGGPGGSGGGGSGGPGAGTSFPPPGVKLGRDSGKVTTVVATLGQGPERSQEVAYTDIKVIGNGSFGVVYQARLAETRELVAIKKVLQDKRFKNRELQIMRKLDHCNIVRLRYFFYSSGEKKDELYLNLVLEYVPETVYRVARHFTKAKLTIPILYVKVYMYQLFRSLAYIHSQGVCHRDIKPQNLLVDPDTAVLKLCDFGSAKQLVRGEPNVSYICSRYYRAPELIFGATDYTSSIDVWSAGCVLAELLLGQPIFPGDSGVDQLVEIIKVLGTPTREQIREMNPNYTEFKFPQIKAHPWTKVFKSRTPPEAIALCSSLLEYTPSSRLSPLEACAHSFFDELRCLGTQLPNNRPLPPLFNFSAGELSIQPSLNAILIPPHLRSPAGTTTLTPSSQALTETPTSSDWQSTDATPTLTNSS

Homo sapiens = organism: Homo sapiens; assay: Inhibition of c-Src (unknown origin) at 1 uM relative to control
[8] = molecular target: Aurora kinase A (Homo sapiens) (UniProt O14965); assay: Inhibition of Aurora A (unknown origin) at 1 uM relative to control
Chain of Aurora kinase A (Homo sapiens) (O14965 whole entry): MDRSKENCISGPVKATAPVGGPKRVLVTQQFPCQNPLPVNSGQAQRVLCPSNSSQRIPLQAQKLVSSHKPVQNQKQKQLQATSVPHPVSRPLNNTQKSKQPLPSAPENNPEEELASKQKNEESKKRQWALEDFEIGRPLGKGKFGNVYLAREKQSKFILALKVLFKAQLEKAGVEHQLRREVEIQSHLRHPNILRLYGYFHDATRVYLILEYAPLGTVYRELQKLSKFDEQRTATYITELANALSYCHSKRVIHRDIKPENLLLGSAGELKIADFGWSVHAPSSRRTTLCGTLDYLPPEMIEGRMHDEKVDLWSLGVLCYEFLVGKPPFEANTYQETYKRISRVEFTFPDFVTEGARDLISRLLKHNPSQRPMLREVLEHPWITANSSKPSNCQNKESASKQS

Row | SMILES | inhibition [1] | IC50 (HCT-116) | inhibition [2] | IC50 [3] | IC50 [4] | other results
1 | Cc1cnc(Nc2ccc(S(=O)(=O)N3CCOCC3)cc2)nc1Nc1nccs1 | 79% | > 10000 nM | 7% |  |  | 
2 | CC(C)c1csc(Nc2ccnc(Nc3ccc(S(N)(=O)=O)cc3)n2)n1 |  | 7350 nM | 81% | 27 nM |  | 
3 | CC(C)c1ccc(-c2csc(Nc3nc(Nc4ccc(S(N)(=O)=O)cc4)ncc3F)n2)cc1 | 65% | > 10000 nM | 27% |  |  | 
4 | NS(=O)(=O)c1ccc(Nc2nccc(Nc3ncc([N+](=O)[O-])s3)n2)cc1 |  | 8830 nM |  | 38 nM | 14 nM | 
5 | CC(C)c1csc(Nc2nc(Nc3ccc(S(N)(=O)=O)cc3)ncc2F)n1 |  | 3870 nM |  | 8 nM | 38 nM | 
6 | CCOC(=O)CNc1ccnc(Nc2ccc(OC)cc2)n1 |  | > 10000 nM |  | 4090 nM | 26100 nM | IC50 (U-87 MG): > 30000 nM; IC50 at 48 h [5]: 126000 nM; IC50 (HepG2): > 30000 nM; IC50 (HeLa): 29300 nM; IC50 (MCF7): > 30000 nM; IC50 [6]: > 30000 nM; IC50 (MV4-11): 28100 nM; IC50 (A2780): > 30000 nM; IC50 (A549): > 30000 nM; IC50 (MDA-MB-231): 32600 nM; IC50 (HT-29): > 30000 nM
7 | Cc1cnc(Nc2ccc(S(=O)(=O)NC3CC3)cc2)nc1Nc1nccs1 | 76% | 9620 nM | 62% |  |  | 
8 | CNS(=O)(=O)c1ccc(Nc2ncc(C)c(Nc3nccs3)n2)cc1 | 85% | > 10000 nM | 19% |  |  | 
9 | CCOC(=O)c1cnc(Nc2nc(Nc3ccc(S(N)(=O)=O)cc3)ncc2C)s1 | 82% | 4580 nM | 79% |  |  | 
10 | Cc1cnc(Nc2ccc(S(N)(=O)=O)cc2)nc1Nc1nc(C(C)C)cs1 |  | 5820 nM |  | 11 nM | 294 nM | 
11 | NS(=O)(=O)c1ccc(Nc2ncc(F)c(Nc3nc(C4CC4)cs3)n2)cc1 |  | 7850 nM | 51% | 11 nM |  | 
12 | Cc1cnc(Nc2ccc(S(=O)(=O)NC(C)C)cc2)nc1Nc1nccs1 | 81% | > 10000 nM | 31% |  |  | 
13 | Cc1cnc(Nc2ccc(S(N)(=O)=O)cc2)nc1Nc1nc(-c2ccc(F)cc2)cs1 |  | 6050 nM |  | 32 nM | 89 nM | 
14 | COc1cnc(Nc2ccc(S(N)(=O)=O)cc2)nc1Nc1nccs1 |  | > 10000 nM |  | 112 nM | 11 nM | 
15 | CCOC(=O)c1cnc(Nc2nc(Nc3ccc(S(N)(=O)=O)cc3)ncc2F)s1 | 79% | 7500 nM | 40% |  |  | 
16 | COc1ccc(Nc2nccc(Nc3cc[nH]n3)n2)cc1 | 47% | > 10000 nM | 29% |  |  | 
17 | CCOC(=O)c1sc(Nc2nc(Nc3ccc(S(N)(=O)=O)cc3)ncc2C)nc1C | 81% | > 10000 nM | 83% |  |  | 
18 | CCOC(=O)c1cnc(Nc2nc(Nc3ccc(S(N)(=O)=O)cc3)ncc2OC)s1 | 36% | > 10000 nM | 32% |  |  | 
19 | COCCNS(=O)(=O)c1ccc(Nc2ncc(C)c(Nc3nccs3)n2)cc1 |  | 7420 nM | 46% | 43 nM |  | 
20 | Cc1csc(Nc2nc(Nc3ccc(S(N)(=O)=O)cc3)ncc2C)n1 |  | 3210 nM |  | 10 nM | 51 nM | 
21 | NS(=O)(=O)c1ccc(Nc2nccc(Nc3nccs3)n2)cc1 |  | 1380 nM |  | 52 nM | 124 nM | 
22 | NS(=O)(=O)c1ccc(Nc2ncc(F)c(Nc3nccs3)n2)cc1 |  | 4040 nM |  | 10 nM | 217 nM | 
23 | NS(=O)(=O)c1ccc(Nc2nccc(Nc3nc(C4CC4)cs3)n2)cc1 |  | 3640 nM |  | 16 nM | 46 nM | 
24 | COc1cc(Nc2nccc(Nc3nccs3)n2)cc(OC)c1OC | 30% | > 10000 nM | 49% |  |  | 

Row | SMILES | inhibition [1] | IC50 (HCT-116) | inhibition [2] | IC50 [3] | IC50 [4] | other results
25 | NS(=O)(=O)c1ccc(Nc2ncc(F)c(Nc3nc(-c4ccc(F)cc4)cs3)n2)cc1 |  | 5260 nM | 41% | 23 nM |  | 
26 | COc1ccc(Nc2nccc(Nc3nccs3)n2)cc1 |  | 2230 nM |  | 910 nM | 1840 nM | 
27 | Cc1cnc(Nc2ccc(S(N)(=O)=O)cc2)nc1Nc1nc(C2CC2)cs1 |  | 6600 nM |  | 5 nM | 46 nM | 
28 | c1ccc(Nc2nccc(Nc3nccs3)n2)cc1 | 61% | > 10000 nM | 18% |  |  | 
29 | NS(=O)(=O)c1ccc(Nc2nccc(Nc3nc(-c4ccc(F)cc4)cs3)n2)cc1 |  | 4400 nM | 65% | 110 nM |  | 
30 | COC(=O)c1sc(Nc2ccnc(Nc3ccc(S(N)(=O)=O)cc3)n2)nc1C | 67% | 8720 nM | 31% |  |  | 
31 | Fc1ccc(Nc2nccc(Nc3nccs3)n2)cc1 | 9% | > 10000 nM | 6% |  |  | 
32 | COc1ccc(Nc2nccc(Nc3ncco3)n2)cc1 | 60% | > 10000 nM | 21% |  |  | 
33 | COC(=O)c1sc(Nc2nc(Nc3ccc(S(N)(=O)=O)cc3)ncc2OC)nc1C | 44% | > 10000 nM | 19% |  |  | 
34 | Cc1cnc(Nc2ccc(S(=O)(=O)N3CCCCC3)cc2)nc1Nc1nccs1 |  | 3050 nM | 4% | 26 nM |  | 
35 | CC(C)c1ccc(-c2csc(Nc3ccnc(Nc4ccc(S(N)(=O)=O)cc4)n3)n2)cc1 | 59% | 6430 nM | 63% |  |  | 
36 | Brc1ccc(Nc2nccc(Nc3nccs3)n2)cc1 | 17% | 6840 nM | 15% |  |  | 
37 | COc1cnc(Nc2ccc(S(N)(=O)=O)cc2)nc1Nc1ncc(C)s1 | 72% | 9760 nM | 75% |  |  | 
38 | Cc1csc(Nc2ccnc(Nc3ccc(S(N)(=O)=O)cc3)n2)n1 | 85% | > 10000 nM | 76% |  |  | 
39 | CCOC(=O)c1sc(Nc2nc(Nc3ccc(S(N)(=O)=O)cc3)ncc2F)nc1C |  | 9260 nM | 69% | 470 nM |  | 
40 | Cc1cnc(Nc2nc(Nc3ccc(S(N)(=O)=O)cc3)ncc2C)s1 | 78% | 692 nM |  |  | 2 nM | 
41 | COC(=O)c1sc(Nc2nc(Nc3ccc(S(N)(=O)=O)cc3)ncc2C)nc1C |  | > 10000 nM | 84% | 53 nM |  | 
42 | Cc1cnc(Nc2ccnc(Nc3ccc(S(N)(=O)=O)cc3)n2)s1 |  | 530 nM | 29% | 5 nM |  | 
43 | Cc1cnc(Nc2nc(Nc3ccc(S(N)(=O)=O)cc3)ncc2F)s1 |  | 910 nM | 66% | 12 nM |  | 
44 | CS(=O)(=O)c1ccc(Nc2nccc(Nc3nccs3)n2)cc1 |  | 9510 nM |  | 110 nM | 470 nM | 
45 | Cc1cnc(Nc2ccc(S(C)(=O)=O)cc2)nc1Nc1nccs1 |  | 6090 nM |  | 55 nM | 13 nM | 
46 | Cc1cnc(Nc2ccc(S(N)(=O)=O)cc2)nc1Nc1nc(-c2ccc(C(C)C)cc2)cs1 | 84% | 3060 nM | 83% |  |  | 
47 | Cc1ncc(-c2ccnc(Nc3ccc(S(C)(=O)=O)cc3)n2)n1C(C)C [AZD-5438] |  | 477 nM |  |  | 18 nM | IC50 (U-87 MG): > 30000 nM; IC50 at 48 h [5]: 18000 nM; IC50 (HepG2): 12400 nM; inhibition [7]: > 50%; IC50 (MV4-11): 2080 nM; IC50 (A2780): 1260 nM; IC50 (A549): 1470 nM; inhibition (Homo sapiens): > 50%; IC50 (MDA-MB-231): 151 nM; inhibition [8]: > 50%; IC50 (HT-29): 1160 nM
